From US8247170B2, “Detection of penicillin tolerance in Group B Streptococcus: single nucleotide polymorphisms in penicillin binding protein 4” (priority 2008, dated 2012)

Test system: GBS clinical isolates and laboratory strains
Assay: Macrobroth penicillin tolerance assay
Assay type: cell-based, Group B Streptococcus
Conditions: then 24 h drug-free; for 100xMIC, regrowth O.D.600: Penicillin G 100×MIC90 48 h; for 300xMIC, regrowth O.D.600: Penicillin G 300×MIC90 48 h; for 10xMIC, regrowth O.D.600: Penicillin G 10×MIC90 48 h; for 30xMIC, regrowth O.D.600: Penicillin G 30×MIC90 48 h
Description: Using this modified penicillin tolerance assay, tolerant strains from the GBS clinical isolates can be more efficiently identified. In this macrobroth culture format, 25 ml THB broth GBS cultures (containing clinical isolates) were grown to an early exponential growth phase (˜0.2 OD600). Cell cultures (6 ml) were collected and divided into 4 culture tubes. […] Cell cultures were shaken at 150 rpm in order to maintain cells in suspension for proper growth. Subcultures (1/20 dilution) of cells were put into fresh THB containing […] Penase (i.e., 100 μl of Penase 10,000 U stock into 4 ml THB culture). Subcultures were allowed to grow for 24 hours at 37° C. Cell growth was monitored by OD (see Example 2).
(I) Bacterial Strains and Culture Conditions. GBS strains A909 (serotype IA), 515 (serotype IA), NEM316 (serotype III), COHI (serotype III), 2603V/R (serotype V) and O90R (non-typable) were used in this study. E. coli Top10 cells were used for the recombination experiments. GBS was cultured in Todd Hewitt broth (THB) or Tryptic Soy 5% sheep blood (TS) media and E. coli in Luria-broth (LB) medium or agar. Antibiotics were used at the following concentrations: for GBS—penicillin G (MIC90 0.06 μg ml^−1), ampicillin (MIC90 0.12 μg ml^−1), vancomycin (MIC90 2 μg ml^−1), cefazolin (MIC90 1 μg ml^−1) and chloramphenicol (5 μg ml^−1); for E. coli—ampicillin (50 μg ml^−1) and chloramphenicol (5 μg ml^−1). Both GBS and E. coli cultures were grown at 37° C. (II) Tolerance Using the MBC:MIC Ratio Method. Three GBS laboratory strains (i.e., A909, NEM316, and O90R) were cultured overnight for 18 h at 37° C. in THB. Subcultures in THB were subsequently grown to exponential phase (OD600˜0.3; i.e. 5×10^5 cfu/ml) at 37° C. Cell cultures were then exposed to different concentrations of antibiotics (Penicillin G, Ampicillin, Cefozolin or Vancomycin). […] Cell cultures were dispersed every 18 h before OD600 was measured to determine the lowest concentration of antibiotic with 90% growth inhibition (MIC90). Antibiotic treated cells (8 μl) from each well were re-suspended into PBS (100 μl) and plated (54 μl) on TS agar plates and allowed to grow for an additional 24 h at 37° C. Cell count was performed to determine the lowest concentration of antibiotic with 90% killing of original inoculums (MBC90). (III) Penicillin Killing and Regrowth Tolerance Assay by Microbroth Dilution. Three GBS laboratory strains (i.e., A909, NEM316, and O90R) were cultured overnight for 18 h at 37° C. in THB. Subcultures in THB were subsequently grown to exponential phase (OD600˜0.3) at 37° C. Cell cultures were then exposed to different concentrations of Penicillin G (Sigma, St. Louis, Mo.). […] Cell cultures were dispersed. A 1:20 dilution of cells was re-plated into new wells containing fresh THB with 500 U Penase (to degrade residual penicillin). Cell cultures were allowed to re-grow for an additional 24 h at 37° C. before the OD600 was measured. (IV) Measuring Cell Viability by Determining ATP Concentration. GBS strains were cultured for 18 h at 37° C. in THB. These cells were inoculated into fresh THB and subsequently allowed to grow to exponential phase (OD600 0.25-0.3) at 37° C. One ml of each culture was centrifuged at 5,000×g for 4 min. The cell pellet was re-suspended in ATP-free water. Cellular ATP was extracted using trichloroacetic acid (TCA) (5%) for 2 min and subsequently neutralized with Tris-EDTA-0.1M NaOAc, pH 7.75 to 10×TCA volume. The initial (in.) cellular ATP concentration ([ATP]) was measured using the ENLITEN (Promega) luciferase based reaction kit. THB cultures were then treated with 100×MIC90 Penicillin G for 22 h. The experimental (exp.) cellular ATP was extracted and the concentration was measured as stated above. Based on the calculations ([ATP] exp.)/([ATP] in./O.D. in.), differences in viability were equated with the change in [ATP]. (V) Measuring Penicillin Induced Lysis. Three GBS laboratory strains (A909, NEM316, and O90R) were cultured for 18 h at 37° C. in THB. […]

CC1(C)S[C@@H]2[C@H](NC(=O)Cc3ccccc3)C(=O)N2[C@H]1C(=O)O [Penicillin G]
100xMIC, regrowth O.D.600 (GBS strain 47 (III)): −− (“−−” indicates an O.D.600 of 0.001 to 0.099)
300xMIC, regrowth O.D.600 (GBS strain 47 (III)): −− (“−−” indicates an O.D.600 of 0.001 to 0.099)
10xMIC, regrowth O.D.600 (GBS strain 60 (NT)): + (“+” indicates an O.D.600 of 0.100 to 0.250)
30xMIC, regrowth O.D.600 (GBS strain 60 (NT)): ++ (“++” indicates an O.D.600 of 0.251 to 0.750)
100xMIC, regrowth O.D.600 (GBS strain 60 (NT)): + (“+” indicates an O.D.600 of 0.100 to 0.250)
300xMIC, regrowth O.D.600 (GBS strain 60 (NT)): + (“+” indicates an O.D.600 of 0.100 to 0.250)
10xMIC, regrowth O.D.600 (GBS strain 68 (III)): + (“+” indicates an O.D.600 of 0.100 to 0.250)
30xMIC, regrowth O.D.600 (GBS strain 68 (III)): −− (“−−” indicates an O.D.600 of 0.001 to 0.099)
100xMIC, regrowth O.D.600 (GBS strain 68 (III)): + (“+” indicates an O.D.600 of 0.100 to 0.250)
300xMIC, regrowth O.D.600 (GBS strain 68 (III)): + (“+” indicates an O.D.600 of 0.100 to 0.250)
10xMIC, regrowth O.D.600 (GBS strain 71 (III)): −− (“−−” indicates an O.D.600 of 0.001 to 0.099)
30xMIC, regrowth O.D.600 (GBS strain 71 (III)): −− (“−−” indicates an O.D.600 of 0.001 to 0.099)
100xMIC, regrowth O.D.600 (GBS strain 71 (III)): −− (“−−” indicates an O.D.600 of 0.001 to 0.099)
300xMIC, regrowth O.D.600 (GBS strain 71 (III)): −− (“−−” indicates an O.D.600 of 0.001 to 0.099)
10xMIC, regrowth O.D.600 (GBS strain 90 (Ib)): −− (“−−” indicates an O.D.600 of 0.001 to 0.099)
30xMIC, regrowth O.D.600 (GBS strain 90 (Ib)): −− (“−−” indicates an O.D.600 of 0.001 to 0.099)
100xMIC, regrowth O.D.600 (GBS strain 90 (Ib)): −− (“−−” indicates an O.D.600 of 0.001 to 0.099)
300xMIC, regrowth O.D.600 (GBS strain 90 (Ib)): −− (“−−” indicates an O.D.600 of 0.001 to 0.099)
10xMIC, regrowth O.D.600 (GBS strain 91 (III)): −− (“−−” indicates an O.D.600 of 0.001 to 0.099)
30xMIC, regrowth O.D.600 (GBS strain 91 (III)): −− (“−−” indicates an O.D.600 of 0.001 to 0.099)
100xMIC, regrowth O.D.600 (GBS strain 91 (III)): −− (“−−” indicates an O.D.600 of 0.001 to 0.099)
300xMIC, regrowth O.D.600 (GBS strain 91 (III)): −− (“−−” indicates an O.D.600 of 0.001 to 0.099)
10xMIC, regrowth O.D.600 (GBS strain 93 (Ib)): −− (“−−” indicates an O.D.600 of 0.001 to 0.099)
30xMIC, regrowth O.D.600 (GBS strain 93 (Ib)): −− (“−−” indicates an O.D.600 of 0.001 to 0.099)
100xMIC, regrowth O.D.600 (GBS strain 93 (Ib)): −− (“−−” indicates an O.D.600 of 0.001 to 0.099)
300xMIC, regrowth O.D.600 (GBS strain 93 (Ib)): −− (“−−” indicates an O.D.600 of 0.001 to 0.099)
10xMIC, regrowth O.D.600 (GBS strain 97 (V)): −− (“−−” indicates an O.D.600 of 0.001 to 0.099)
30xMIC, regrowth O.D.600 (GBS strain 97 (V)): ++ (“++” indicates an O.D.600 of 0.251 to 0.750)
100xMIC, regrowth O.D.600 (GBS strain 97 (V)): ++ (“++” indicates an O.D.600 of 0.251 to 0.750)
300xMIC, regrowth O.D.600 (GBS strain 97 (V)): ++ (“++” indicates an O.D.600 of 0.251 to 0.750)
10xMIC, regrowth O.D.600 (GBS strain 101 (NT)): −− (“−−” indicates an O.D.600 of 0.001 to 0.099)
30xMIC, regrowth O.D.600 (GBS strain 101 (NT)): −− (“−−” indicates an O.D.600 of 0.001 to 0.099)
100xMIC, regrowth O.D.600 (GBS strain 101 (NT)): −− (“−−” indicates an O.D.600 of 0.001 to 0.099)
300xMIC, regrowth O.D.600 (GBS strain 101 (NT)): −− (“−−” indicates an O.D.600 of 0.001 to 0.099)
10xMIC, regrowth O.D.600 (GBS strain 117 (Ia)): + (“+” indicates an O.D.600 of 0.100 to 0.250)
30xMIC, regrowth O.D.600 (GBS strain 117 (Ia)): + (“+” indicates an O.D.600 of 0.100 to 0.250)
100xMIC, regrowth O.D.600 (GBS strain 117 (Ia)): + (“+” indicates an O.D.600 of 0.100 to 0.250)
300xMIC, regrowth O.D.600 (GBS strain 117 (Ia)): + (“+” indicates an O.D.600 of 0.100 to 0.250)
10xMIC, regrowth O.D.600 (GBS strain 122 (III)): −− (“−−” indicates an O.D.600 of 0.001 to 0.099)
30xMIC, regrowth O.D.600 (GBS strain 122 (III)): −− (“−−” indicates an O.D.600 of 0.001 to 0.099)
100xMIC, regrowth O.D.600 (GBS strain 122 (III)): −− (“−−” indicates an O.D.600 of 0.001 to 0.099)
300xMIC, regrowth O.D.600 (GBS strain 122 (III)): −− (“−−” indicates an O.D.600 of 0.001 to 0.099)
10xMIC, regrowth O.D.600 (GBS strain 127 (Ia)): −− (“−−” indicates an O.D.600 of 0.001 to 0.099)
30xMIC, regrowth O.D.600 (GBS strain 127 (Ia)): ++ (“++” indicates an O.D.600 of 0.251 to 0.750)
100xMIC, regrowth O.D.600 (GBS strain 127 (Ia)): ++ (“++” indicates an O.D.600 of 0.251 to 0.750)
300xMIC, regrowth O.D.600 (GBS strain 127 (Ia)): ++ (“++” indicates an O.D.600 of 0.251 to 0.750)
10xMIC, regrowth O.D.600 (GBS strain 129 (V)): −− (“−−” indicates an O.D.600 of 0.001 to 0.099)
30xMIC, regrowth O.D.600 (GBS strain 129 (V)): −− (“−−” indicates an O.D.600 of 0.001 to 0.099)
100xMIC, regrowth O.D.600 (GBS strain 129 (V)): −− (“−−” indicates an O.D.600 of 0.001 to 0.099)
300xMIC, regrowth O.D.600 (GBS strain 129 (V)): −− (“−−” indicates an O.D.600 of 0.001 to 0.099)
10xMIC, regrowth O.D.600 (GBS strain 131 (V)): −− (“−−” indicates an O.D.600 of 0.001 to 0.099)
30xMIC, regrowth O.D.600 (GBS strain 131 (V)): −− (“−−” indicates an O.D.600 of 0.001 to 0.099)
100xMIC, regrowth O.D.600 (GBS strain 131 (V)): −− (“−−” indicates an O.D.600 of 0.001 to 0.099)
300xMIC, regrowth O.D.600 (GBS strain 131 (V)): −− (“−−” indicates an O.D.600 of 0.001 to 0.099)
10xMIC, regrowth O.D.600 (GBS strain 156 (Ia)): −− (“−−” indicates an O.D.600 of 0.001 to 0.099)
30xMIC, regrowth O.D.600 (GBS strain 156 (Ia)): −− (“−−” indicates an O.D.600 of 0.001 to 0.099)
100xMIC, regrowth O.D.600 (GBS strain 156 (Ia)): −− (“−−” indicates an O.D.600 of 0.001 to 0.099)
300xMIC, regrowth O.D.600 (GBS strain 156 (Ia)): ++ (“++” indicates an O.D.600 of 0.251 to 0.750)
10xMIC, regrowth O.D.600 (GBS strain 172 (NT)): −− (“−−” indicates an O.D.600 of 0.001 to 0.099)
